According to PubChem BioAssay AID2060490 (Molecular Pharmacology Branch, DTP, NCI, 2025):
Values joined by “and” are separate entries in the source; they are usually repeats but may differ in a detail not shown here. Identical values can stand only once. One block for each compound: values may come before it.

Test system: 885512-296-R-J2-PDC complex spheroid viability
Experiment: Anticancer human tumor 885512-296-R-J2-PDC patient-derived breast carcinoma cell line growth inhibition [GQUAD]
Conditions: for viability, T/C: stronger effect = lower value
Text: DNA G-quadruplex Stabilizer Agents in Combinations in Complex Spheroids
A high-throughput screen of multi-cell type tumor spheroids was designed to identify active combinations of DNA G-quadruplex stabilizer agents and targeted small molecules. Complex spheroids include a stromal component modeled by human endothelial cells (HUVEC) and fibroblasts modeled by human mesenchymal stem cells (MSCs). The concentration ranges selected for each drug and investigational agent were based upon clinically achievable concentrations if the clinical Cmax of the agent was known.
Compounds. The drugs and investigational agents: pidnarulex (CX-5461; NSC782164), APTO-253 (NSC789042), BRACO-19 (NSC847499), peposertib (NSC802822), ceralasertib (NSC780249), elimusertib (NSC800525), camonsertib (NSC841442), AZD-1390 (NSC803789), olaparib (NSC753686), talazoparib (NSC767125), ART-558 (NSC835418), sotorasib (NSC818433), MRTX-1133 (NSC836407), SN-38 (NSC673596), topotecan (NSC609699), etoposide (NSC141540), doxorubicin (NSC123127), gemcitabine (NSC613327), 5-fluorouracil (NSC19893), paclitaxel (NSC125973), vemurafenib (NSC761431), panobinostat (NSC761190), R-306465 (JNJ-16241199; NSC773264), adavosertib (NSC754352), TP-3654 (NSC805149), carboplatin (NSC241240), KSQ-4279 (NSC840948), and staurosporine (NSC755774) were obtained from the National Cancer Institute (NCI) Developmental Therapeutics Program Chemical Repository (34). The FDA-approved anticancer drug set is available from the NCI Developmental Therapeutics Program. […] The stock solutions were prepared in dimethyl sulfoxide (DMSO, Sigma-Aldrich, St. Louis, MO, cat. D2650) at 800-fold the tested concentration and stored at -70 degrees C prior to their use. All drugs and investigational agents were tested over a range starting from a high concentration at or near the clinical Cmax and decreasing in half-log increments. If the clinical Cmax for an agent had not been determined, the highest concentration tested was 10 microM.
2.3 Cell Culture. All cells were maintained in an incubator at 37 degrees C and 5% CO2 with 95% humidity. The PDC lines were cultured according to standard operating procedures established by the NCI PDMR. All PDCs were thawed and cultured in Matrigel-coated flasks prepared with a working solution of 1X Ham's F-12 nutrient mix, without supplementation (Invitrogen, cat. 11765054), 100 U/mL penicillin-streptomycin (Invitrogen, cat. 15140122), and 2.5% Matrigel (Corning Inc., cat. 354248) for the first three passages. The 857933-349-R-J2-PDC line was cultured in 6C/Colon 1B media, which includes advanced DMEM/F-12 (Thermo Fisher Scientific, cat. 12634028), 10 mM HEPES (Thermo Fisher Scientific, cat. 15630080), 1X GlutaMAX supplement (Thermo Fisher Scientific, cat. 35050061), 0.1 mg/mL primocin (InvivoGen, cat. ant-pm-2), 10% defined fetal bovine serum, heat inactivated (HyClone Laboratories Inc., cat. SH30070.03HI), 50% L-WRN conditioned media (ATCC, cat. CRL-3276), 1.25 mM N-Acetyl-L-cysteine (Sigma-Aldrich, cat. A9165), 10 mM nicotinamide (Sigma-Aldrich, cat. N0636), 1X B-27 supplement (Thermo Fisher Scientific, cat. 17504044), 1X N-2 supplement (Thermo Fisher Scientific, cat. 17502048), 10 microM Y-27632 dihydrochloride (Tocris Bioscience, cat. 1254), and 50 ng/mL human EGF recombinant protein (Thermo Fisher Scientific, cat. PHG0311). The 485176-168-R4-J1-PDC line was cultured in Panc media, which includes all 6C/Colon 1B media components plus 100 ng/mL human FGF-10 (Thermo Fisher Scientific, cat. 100-26), 500 nM SB-431542 (Selleckchem, cat. S1067), and gastrin (Tocris, cat. 3006).
[…]

[1] = curve of first compound, second compound 0.0316 µM
[2] = curve of first compound, second compound 0.1 µM
[3] = curve of first compound, second compound 0.316 µM
[4] = curve of first compound, second compound 1 µM
[5] = curve of first compound, second compound 3.16 µM
[6] = curve of first compound, second compound 10 µM
[7] = second compound 0.0316 µM, first compound 0.0316 µM
[8] = second compound 0.0316 µM, first compound 0.1 µM
[9] = second compound 0.0316 µM, first compound 0.316 µM
[10] = second compound 0.0316 µM, first compound 1 µM
[11] = second compound 0.0316 µM, first compound 3.16 µM
[12] = second compound 0.0316 µM, first compound 10 µM
[13] = second compound 0.1 µM, first compound 0.0316 µM
[14] = second compound 0.1 µM, first compound 0.1 µM
[15] = second compound 0.1 µM, first compound 0.316 µM
[16] = second compound 0.1 µM, first compound 1 µM
[17] = second compound 0.1 µM, first compound 3.16 µM
[18] = second compound 0.1 µM, first compound 10 µM
[19] = second compound 0.316 µM, first compound 0.0316 µM
[20] = second compound 0.316 µM, first compound 0.1 µM
[21] = second compound 0.316 µM, first compound 0.316 µM
[22] = second compound 0.316 µM, first compound 1 µM
[23] = second compound 0.316 µM, first compound 3.16 µM
[24] = second compound 0.316 µM, first compound 10 µM
[25] = second compound 1 µM, first compound 0.0316 µM
[26] = second compound 1 µM, first compound 0.1 µM
[27] = second compound 1 µM, first compound 0.316 µM
[28] = second compound 1 µM, first compound 1 µM
[29] = second compound 1 µM, first compound 3.16 µM
[30] = second compound 1 µM, first compound 10 µM
[31] = second compound 3.16 µM, first compound 0.0316 µM
[32] = second compound 3.16 µM, first compound 0.1 µM
[33] = second compound 3.16 µM, first compound 0.316 µM
[34] = second compound 3.16 µM, first compound 1 µM
[35] = second compound 3.16 µM, first compound 3.16 µM
[36] = second compound 3.16 µM, first compound 10 µM
[37] = second compound 10 µM, first compound 0.0316 µM
[38] = second compound 10 µM, first compound 0.1 µM
[39] = second compound 10 µM, first compound 0.316 µM
[40] = second compound 10 µM, first compound 1 µM
[41] = second compound 10 µM, first compound 3.16 µM
[42] = second compound 10 µM, first compound 10 µM
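Also: spheroids exposed to the compounds for one week.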
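For viability, T/C in this document: percent of tumor spheroid viability relative to DMSO vehicle control wells.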

SMILES: CC1COCCN1c1cc(C2(S(C)(=N)=O)CC2)nc(-c2ccnc3[nH]ccc23)n1 (stereo not given) + Cc1[nH]c2ccc(F)cc2c1-c1nc2c3cccnc3c3ncccc3c2[nH]1
- IC50 [1]: 838 nM
- IC50 [2]: 868 nM
- IC50 [3]: 555 nM
- IC50 [4]: 147 nM
- IC50 [5]: < 31.6 nM
- IC50 [6]: < 31.6 nM
- viability, T/C [7]: 103%
- viability, T/C [8]: 105%
- viability, T/C [9]: 85.6%
- viability, T/C [10]: 44.9%
- viability, T/C [11]: 7.65%
- viability, T/C [12]: 5.02%
- viability, T/C [13]: 125%
- viability, T/C [14]: 108%
- viability, T/C [15]: 92.1%
- viability, T/C [16]: 46.1%
- viability, T/C [17]: 6.65%
- viability, T/C [18]: 3.91%
- viability, T/C [19]: 102%
- viability, T/C [20]: 94.2%
- viability, T/C [21]: 72%
- viability, T/C [22]: 28%
- viability, T/C [23]: 4.02%
- viability, T/C [24]: 4.62%
- viability, T/C [25]: 80.4%
- viability, T/C [26]: 55.6%
- viability, T/C [27]: 37%
- viability, T/C [28]: 5.55%
- viability, T/C [29]: 3.67%
- viability, T/C [30]: 3.74%
- viability, T/C [31]: 10.4%
- viability, T/C [32]: 5.19%
- viability, T/C [33]: 3.19%
- viability, T/C [34]: 1.97%
- viability, T/C [35]: 1.51%
- viability, T/C [36]: 1.38%
- viability, T/C [37]: 1.16%
- viability, T/C [38]: 1.65%
- viability, T/C [39]: 1.5%
- viability, T/C [40]: 1.57%
- viability, T/C [41]: 1.94%
- viability, T/C [42]: 1.43%

SMILES: COc1cccc2c1C(=O)c1c(O)c3c(c(O)c1C2=O)CC(O)(C(=O)CO)CC3OC1CC(N)C(O)C(C)O1 (stereo not given) + CN(C)c1ccc(Nc2c3ccc(NC(=O)CCN4CCCC4)cc3nc3cc(NC(=O)CCN4CCCC4)ccc23)cc1
- IC50 [1]: 69.7 nM
- IC50 [2]: 72.6 nM
- IC50 [3]: 78.8 nM
- IC50 [4]: 76.6 nM
- IC50 [5]: 70.6 nM
- IC50 [6]: < 31.6 nM
- viability, T/C [7]: 83.5%
- viability, T/C [8]: 29.8%
- viability, T/C [9]: 23.5%
- viability, T/C [10]: 6.89%
- viability, T/C [11]: 0.38%
- viability, T/C [12]: 3.01%
- viability, T/C [13]: 90.9%
- viability, T/C [14]: 31.5%
- viability, T/C [15]: 18.5%
- viability, T/C [16]: 8.24%
- viability, T/C [17]: 1.04%
- viability, T/C [18]: 2.8%
- viability, T/C [19]: 95.3%
- viability, T/C [20]: 35.2%
- viability, T/C [21]: 20.9%
- viability, T/C [22]: 7.15%
- viability, T/C [23]: 1.27%
- viability, T/C [24]: 3.37%
- viability, T/C [25]: 95%
- viability, T/C [26]: 30%
- viability, T/C [27]: 26.1%
- viability, T/C [28]: 8.92%
- viability, T/C [29]: 0.75%
- viability, T/C [30]: 3.6%
- viability, T/C [31]: 81.5%
- viability, T/C [32]: 34.8%
- viability, T/C [33]: 18.1%
- viability, T/C [34]: 8.3%
- viability, T/C [35]: 3.01%
- viability, T/C [36]: 2.07%
- viability, T/C [37]: 26.5%
- viability, T/C [38]: 20%
- viability, T/C [39]: 9.35%
- viability, T/C [40]: 5.9%
- viability, T/C [41]: 0.9%
- viability, T/C [42]: 1.52%

- IC50 (curve of compound): 865 nM and 752 nM and 652 nM
SMILES: CC1COCCN1c1cc(C2(S(C)(=N)=O)CC2)nc(-c2ccnc3[nH]ccc23)n1 (stereo not given)
- viability, T/C (compound 0.0316 µM): 103% (2×) and 99.8%
- viability, T/C (compound 0.1 µM): 106% and 90.2% and 88.9%
- viability, T/C (compound 0.316 µM): 98.9% and 83.5% and 84.4%
- viability, T/C (compound 1 µM): 43% and 40% and 30%
- viability, T/C (compound 3.16 µM): 5.74% and 6.03% and 4.64%
- viability, T/C (compound 10 µM): 4.07% and 4.55% and 4.14%

- IC50 (compound alone, run of 04/16/2024): 1.75 µM [middle of 8 runs]
- IC50 (compound alone, run of 04/22/2024): 1.54 µM [middle of 4 runs]
SMILES: Cc1[nH]c2ccc(F)cc2c1-c1nc2c3cccnc3c3ncccc3c2[nH]1
- viability, T/C (compound 0.0316 µM): 99.9% [middle of 12 runs]
- viability, T/C (compound 0.1 µM): 101% [middle of 12 runs]
- viability, T/C (compound 0.316 µM): 97.9% [middle of 12 runs]
- viability, T/C (compound 1 µM): 76.9% [middle of 12 runs]
- viability, T/C (compound 10 µM): 3.15% [middle of 12 runs]

- IC50 (curve of compound): > 10000 nM
SMILES: Cc1cccc(N(C)C(=O)C2C(O)CCN2c2nc(C)cc(C(F)(F)F)c2C#N)c1 (stereo not given)
- viability, T/C (compound 0.0316 µM): 104% and 98.3% and 102%
- viability, T/C (compound 0.1 µM): 100% and 104% (2×)
- viability, T/C (compound 0.316 µM): 91.8% and 93.8% and 104%
- viability, T/C (compound 1 µM): 97.2% and 103% and 105%
- viability, T/C (compound 3.16 µM): 97.8% and 113% and 97.5%
- viability, T/C (compound 10 µM): 85% and 79.4% and 86.6%

SMILES: Cc1[nH]c2ccccc2c1CCNCc1ccc(/C=C/C(=O)NO)cc1
- viability, T/C (compound 0.000999 µM): 108% and 90.8% and 92.3%
- viability, T/C (compound 0.00316 µM): 93.8% and 86.2% and 86.1%
- viability, T/C (compound 0.00999 µM): 96.1% and 71.2% and 73.6%
- viability, T/C (compound 0.0316 µM): 112% and 42% and 57.7%
- viability, T/C (compound 0.0999 µM): 94.9% and 25.6% and 28.9%
